Laboratory results as given in publication PMC8807614 (Scientific Reports, 2022).
pEC50: −log10 of the molar value. Numbered stars: 1 amine (or outer) side, 2 acyl side, 3 side chain; on linkers, the order of the positions; unused ones are H or OH. Side chains are listed from the residue outwards. Ends that are not written are not given here. Peptide text beside a SMILES is read from it. * marks the point of attachment. γGlu = O=C(O)[C@H](CCC(=O)[*:2])N[*:1]; Stearoyl = CCCCCCCCCCCCCCCCCC(=O)*; AEEA = NCCOCCOCC(=O)O

Key:
[1] = In vivo plasma metabolite identification (MetID) of GUB03385; design: species or system DIO mice; conditions: UPLC-Orbitrap MS; for %AUC 60 min: metabolite of GUB03385 in plasma of DIO mice 60 min after GUB03385 1250 nmol/kg SC; for %AUC 120 min: metabolite of GUB03385 in plasma of DIO mice 120 min after GUB03385 1250 nmol/kg SC; for %AUC 30 min: metabolite of GUB03385 in plasma of DIO mice 30 min after GUB03385 1250 nmol/kg SC
Method: Cardiac blood samples from DIO mice dosed with GUB03385 (1250 nmol/kg, SC, n = 10) were collected after 5, 10, 30, 60 and 120 min. Anaesthesia was performed using 2–4% isoflurane/O2 (Attane Vet., ScanVet Animal Health, Fredensborg, Denmark) inhalation. Blood samples were centrifuged (3000 g, 10 min) and plasma supernatants were stored at − 80 °C until MS analysis which was performed by Admescope Ltd (Oulu, Finland). Plasma precipitation was performed with twofold volume of cold acetonitrile containing 1% of formic acid. After centrifugation ([…], 10 min), supernatant was pipetted to 96-well plate and analysed using a Waters Acquity UPLC coupled to a Thermo Q-Exactive Focus Orbitrap MS. Peptides were separated on a Waters CSH C18 (2.1 × 50 mm, […]) column with a linear gradient from 2 to 40% acetonitrile over 3.5 min at a flowrate of 0.5 mL/min. Mass spectra were acquired in positive ionization mode in the mass range 133–2000 m/z with a resolution of 35,000; MS/MS data were acquired at a resolution of 17,500 in AIF mode with a normalized collision energy of 57. Data analysis and profiling of metabolites was performed by Admescope using Thermo XCalibur 4.1.31.9.

[2] = target: T1, human prolactin releasing peptide receptor (GPR10) (Homo sapiens, UniProt P49683); assay: GPR10 functional activity assay (IP1, HTRF); format: cell-based; conditions: Chem-1 cells stably expressing human GPR10, 10.000 cells/well; HTRF IP1 (CisBio); 30 min at 37 °C; IP1 stimulation buffer with 0.05% casein; 11 concentrations
T1 sequence (P49683 1-370): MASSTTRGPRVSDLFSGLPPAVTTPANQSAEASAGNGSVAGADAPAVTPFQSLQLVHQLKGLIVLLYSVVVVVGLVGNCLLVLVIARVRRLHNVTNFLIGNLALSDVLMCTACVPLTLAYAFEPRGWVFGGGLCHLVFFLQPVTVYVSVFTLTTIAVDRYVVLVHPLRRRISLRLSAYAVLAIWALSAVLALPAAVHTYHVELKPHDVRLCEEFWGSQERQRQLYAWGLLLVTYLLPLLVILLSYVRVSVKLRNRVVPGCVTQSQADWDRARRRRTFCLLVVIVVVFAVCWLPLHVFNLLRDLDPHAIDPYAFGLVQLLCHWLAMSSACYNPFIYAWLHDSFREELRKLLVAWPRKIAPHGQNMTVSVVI

[3] = target: human NPFF2R (Homo sapiens, UniProt Q9Y5X5); assay: NPFF2R functional activity assay (cAMP, HTRF); format: cell-based; conditions: CHO-K1 cells stably expressing human NPFF2R, 1500 cells/well; HTRF cAMP (CisBio); 3 µM forskolin (~90% activity level); 30 min; DPBS, 0.5 mM IBMX, 0.05% casein; 11 concentrations
human NPFF2R, sequence (Q9Y5X5 whole entry): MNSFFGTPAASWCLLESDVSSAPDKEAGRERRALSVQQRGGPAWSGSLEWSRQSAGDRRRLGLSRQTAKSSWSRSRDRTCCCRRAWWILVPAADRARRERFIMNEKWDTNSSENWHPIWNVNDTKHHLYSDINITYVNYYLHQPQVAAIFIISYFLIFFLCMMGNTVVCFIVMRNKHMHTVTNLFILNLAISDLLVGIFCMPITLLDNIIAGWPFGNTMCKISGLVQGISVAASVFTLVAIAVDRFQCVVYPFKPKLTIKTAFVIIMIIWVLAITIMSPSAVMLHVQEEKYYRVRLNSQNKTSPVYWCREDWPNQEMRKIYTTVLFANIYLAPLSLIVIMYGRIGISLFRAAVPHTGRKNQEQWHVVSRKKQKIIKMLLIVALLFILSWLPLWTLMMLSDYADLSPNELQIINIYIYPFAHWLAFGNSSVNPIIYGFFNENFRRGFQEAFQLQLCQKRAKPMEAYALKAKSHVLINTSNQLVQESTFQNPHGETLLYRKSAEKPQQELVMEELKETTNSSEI
Method: Figure 3 GPR10 and NPFF2R profiling of in vivo metabolites of GUB03385. […] (b) cAMP measurements in human NPFF2R CHO-K cells (HTRF technology, CisBio) at a fixed concentration of 3 µM forskolin after 30 min. incubation at room temperature with metabolites and the native peptide NPSF. Representative curves of three determinations.
The Homogenous Time Resolved Fluorescence (HTRF) technology optimized for Gq coupled receptors has thoroughly been described in the CisBio IP1 kit manual (#62IPAPEC) and in the cAMP assay kit manual for Gi coupled receptors (#62AM9PEC). Briefly, this technic is based on a competitive immunoassay using cryptate-labelled anti-cAMP or anti-IP1 antibodies and d2-labeled cAMP or IP1. In the absence of cellular cAMP or IP1, the anti-cryptate conjugate may get into proximity to the d2 conjugate and energy (FRET) can be transferred from cryptate to d2. Chem-1 cells stably expressing the human prolactin releasing peptide receptor (GPR10, Eurofins, # HTS057C) and irradiated CHO-K1 cells stably expressing the human NPFF2R (PerkinElmer, #ES-490-CF) were applied as cells in suspension, brought to life from frozen cell stocks immediately before assay performance. 384-Well (Corning, #4513) assay formats with a total assay volume of 20 µl were applied. GPR10 cells (10.000 cells/well) were incubated with agonist peptides and the NPFF2R cells (1500 cells/well) were incubated with agonist peptides and forskolin (~ 90% activity level) for 30 min at 37 °C using IP1 kit stimulation buffer and DPBS (Sigma, #D8537) containing 0.5 mM IBMX (Sigma, # I5879), receptively. Both stimulation buffers were supplemented with 0.05% casein (Sigma, # C4765-10 ml). After addition of HTRF® detection reagents and incubation with shaking (2400 rpm) for one hour at room temperature signals at 620 and 665 nm (raw counts: ratio of 665/620) were detected at a ClarioStar plate reader (BMG Labtech, Ortenberg, Germany). Concentration–response evaluation of compounds was performed with 11 concentrations of agonist peptides (covering 3 decades) and EC50 values were calculated by nonlinear regression using sigmoid concentration–response with variable slope. Data were analysed using GraphPad v9.1 software (GraphPad, La Jolla, CA).

Molecule	%AUC 60 min [1]	%AUC 120 min [1]	%AUC 30 min [1]	other results
CCCCCCCCCCCCCCCCCC(=O)N[C@@H](CCC(=O)NCCOCCOCC(=O)NCCOCCOCC(=O)NCCCC[C@H](NC(=O)CN)C(=O)N[C@@H](CCCNC(=N)N)C(=O)N1CCC[C@H]1C(=O)N[C@H](C(=O)NCC(=O)N[C@@H](CCCNC(=N)N)C(=O)N[C@@H](Cc1ccccc1)C(N)=O)C(C)C)C(=O)O [GUB08251] (H-GK([AEEA-AEEA-γGlu-Stearoyl])RPVGRF-NH2)	7%	8%		
CCCCCCCCCCCCCCCCCC(=O)N[C@@H](CCC(=O)NCCOCCOCC(=O)NCCOCCOCC(=O)NCCCC[C@H](NC(=O)CNC(=O)[C@H](CCCNC(=N)N)NC(=O)[C@@H](N)CO)C(=O)N[C@@H](CCCNC(=N)N)C(=O)N1CCC[C@H]1C(=O)N[C@H](C(=O)O)C(C)C)C(=O)O [GUB08250] (H-SRGK([AEEA-AEEA-γGlu-Stearoyl])RPV-OH; C-terminus assumed)	23%	14%	48%	
CC(C)C[C@H](NC(=O)[C@H](Cc1ccccc1)NC(=O)[C@H](C)NC(=O)[C@H](CCC(N)=O)NC(=O)[C@@H](N)CO)C(=O)N[C@@H](Cc1ccccc1)C(=O)N[C@@H](CCC(N)=O)C(=O)N1CCC[C@H]1C(=O)N[C@@H](CCC(N)=O)C(=O)N[C@@H](CCCNC(=N)N)C(=O)N[C@@H](Cc1ccccc1)C(N)=O [NPSF, neuropeptide SF]				pEC50 [2]: < 5.30; pEC50 [3]: 8.25
CCCCCCCCCCCCCCCCCC(=O)N[C@@H](CCC(=O)NCCOCCOCC(=O)NCCOCCOCC(=O)NCCCC[C@H](NC(=O)CNC(=O)[C@H](CCCNC(=N)N)NC(=O)[C@H](CO)NC(=O)[C@H](C)NC(=O)[C@H](Cc1ccc(O)cc1)NC(=O)[C@H](Cc1c[nH]c2ccccc12)NC(=O)[C@H](C)NC(=O)[C@@H]1CCCN1C(=O)[C@H](CC(N)=O)NC(=O)[C@@H](NC(=O)[C@H](CC(=O)O)NC(=O)[C@@H]1CCCN1C(=O)[C@@H](NC(=O)[C@H](CCCNC(=N)N)NC(=O)[C@@H](NC(=O)[C@H](CCC(=O)O)NC(=O)[C@H](CCSC)NC(=O)[C@H](CO)NC(=O)[C@H](Cc1c[nH]cn1)NC(=O)[C@H](CCCNC(=N)N)NC(=O)[C@H](Cc1c[nH]cn1)NC(=O)[C@@H](NC(=O)[C@H](CCCNC(=N)N)NC(=O)[C@@H](N)CO)[C@@H](C)O)[C@@H](C)CC)[C@@H](C)O)[C@@H](C)CC)C(=O)N[C@@H](CCCNC(=N)N)C(=O)N1CCC[C@H]1C(=O)N[C@H](C(=O)NCC(=O)N[C@@H](CCCNC(=N)N)C(=O)N[C@@H](Cc1ccccc1)C(N)=O)C(C)C)C(=O)O [GUB03385] (H-SRTHRHSMEIRTPDINPAWYASRGK([AEEA-AEEA-γGlu-Stearoyl])RPVGRF-NH2)				time of degradation after subcutaneous administration ([1]; DIO mice, 1250 nmol/kg SC, plasma): < 30 min
CCCCCCCCCCCCCCCCCC(=O)N[C@@H](CCC(=O)NCCOCCOCC(=O)NCCOCCOCC(=O)NCCCC[C@H](N)C(=O)N[C@@H](CCCNC(=N)N)C(=O)N1CCC[C@H]1C(=O)N[C@H](C(=O)O)C(C)C)C(=O)O [GUB08254] (H-K([AEEA-AEEA-γGlu-Stearoyl])RPV-OH; C-terminus assumed)	5%	11%		
CCCCCCCCCCCCCCCCCC(=O)N[C@@H](CCC(=O)NCCOCCOCC(=O)NCCOCCOCC(=O)NCCCC[C@H](N)C(=O)N[C@@H](CCCNC(=N)N)C(=O)N1CCC[C@H]1C(=O)N[C@H](C(=O)NCC(=O)O)C(C)C)C(=O)O [GUB08253] (H-K([AEEA-AEEA-γGlu-Stearoyl])RPVG-OH; C-terminus assumed)	11%	15%		
CCCCCCCCCCCCCCCCCC(=O)N[C@@H](CCC(=O)NCCOCCOCC(=O)NCCOCCOCC(=O)NCCCC[C@H](NC(=O)CNC(=O)[C@H](CCCNC(=N)N)NC(=O)[C@@H](N)CO)C(=O)N[C@@H](CCCNC(=N)N)C(=O)N1CCC[C@H]1C(=O)N[C@H](C(=O)NCC(=O)N[C@@H](CCCNC(=N)N)C(=O)N[C@@H](Cc1ccccc1)C(N)=O)C(C)C)C(=O)O [GUB08248] (H-SRGK([AEEA-AEEA-γGlu-Stearoyl])RPVGRF-NH2)	5%		11%	
CCCCCCCCCCCCCCCCCC(=O)N[C@@H](CCC(=O)NCCOCCOCC(=O)NCCOCCOCC(=O)NCCCC[C@H](NC(=O)CNC(=O)[C@H](CCCNC(=N)N)NC(=O)[C@@H](N)CO)C(=O)N[C@@H](CCCNC(=N)N)C(=O)N1CCC[C@H]1C(=O)N[C@H](C(=O)NCC(=O)O)C(C)C)C(=O)O [GUB08249] (H-SRGK([AEEA-AEEA-γGlu-Stearoyl])RPVG-OH; C-terminus assumed)	9%	7%	18%	
TPDINPAWYASRGIRPVGRF-NH2 [PrRP20]				pEC50 [2]: 9.70; pEC50 [3]: < 5.30
CC[C@H](C)[C@H](NC(=O)CNC(=O)[C@H](CCCNC(=N)N)NC(=O)[C@H](CO)NC(=O)[C@H](C)NC(=O)[C@H](Cc1ccc(O)cc1)NC(=O)[C@H](Cc1c[nH]c2ccccc12)NC(=O)[C@H](C)NC(=O)[C@@H]1CCCN1C(=O)[C@H](CC(N)=O)NC(=O)[C@@H](NC(=O)[C@H](CC(=O)O)NC(=O)[C@@H]1CCCN1C(=O)[C@@H](NC(=O)[C@H](CCCNC(=N)N)NC(=O)[C@@H](NC(=O)[C@H](CCC(=O)O)NC(=O)[C@H](CCSC)NC(=O)[C@H](CO)NC(=O)[C@H](Cc1c[nH]cn1)NC(=O)[C@H](CCCNC(=N)N)NC(=O)[C@H](Cc1c[nH]cn1)NC(=O)[C@@H](NC(=O)[C@H](CCCNC(=N)N)NC(=O)[C@@H](N)CO)[C@@H](C)O)[C@@H](C)CC)[C@@H](C)O)[C@@H](C)CC)C(=O)N[C@@H](CCCNC(=N)N)C(=O)N1CCC[C@H]1C(=O)N[C@H](C(=O)NCC(=O)N[C@@H](CCCNC(=N)N)C(=O)N[C@@H](Cc1ccccc1)C(N)=O)C(C)C [PrRP31]				pEC50 [3]: < 5.30

More lines, main results first:

%AUC 60 min [1]	%AUC 120 min [1]	%AUC 30 min [1]	Molecule	other results
7%	1%	34%	CCCCCCCCCCCCCCCCCC(=O)N[C@@H](CCC(=O)NCCOCCOCC(=O)NCCOCCOCC(=O)NCCCC[C@H](NC(=O)CNC(=O)[C@H](CCCNC(=N)N)NC(=O)[C@H](CO)NC(=O)[C@H](C)N)C(=O)N[C@@H](CCCNC(=N)N)C(=O)N1CCC[C@H]1C(=O)N[C@H](C(=O)NCC(=O)O)C(C)C)C(=O)O [GUB08247] (H-ASRGK([AEEA-AEEA-γGlu-Stearoyl])RPVG-OH; C-terminus assumed)	
11%	10%		CCCCCCCCCCCCCCCCCC(=O)N[C@@H](CCC(=O)NCCOCCOCC(=O)NCCOCCOCC(=O)NCCCC[C@H](N)C(=O)N[C@@H](CCCNC(=N)N)C(=O)N1CCC[C@H]1C(=O)N[C@H](C(=O)NCC(=O)N[C@@H](CCCNC(=N)N)C(=O)O)C(C)C)C(=O)O [GUB08252] (H-K([AEEA-AEEA-γGlu-Stearoyl])RPVGR-OH; C-terminus assumed)	
